In patent US8633312B2, “Dibenzocycloheptatone derivatives and pharmaceutical agents containing said compounds” (c-a-i-r biosciences GmbH, priority 2008, dated 2014):

Assays:
p38 MAP kinase = p38 MAP kinase (Homo sapiens, UniProt Q16539); assay: Inhibition of p38 MAP kinase, IC50 relative to SB-203580; assay type: biochemical; conditions: relative activity = ratio IC50 (SB-203580)/IC50 (test compound); the higher the value, the more active
TNF-α = assay: Inhibition of TNF-α release, IC50 relative to SB-203580; assay type: cell-based; conditions: relative activity = ratio IC50 (SB-203580)/IC50 (test compound); the higher the value, the more active
Text: The action spectrum of the compounds as inhibitors of the release of TNF-α and IL-1β was investigated with the aid of the test systems as described by Donat C. and Laufer S. in Arch. Pharm. Pharm. Med. Chem. 333, Suppl. 1, 1-40, 2000. The IC50 values obtained were set in relation to the values for the compound SB-203580 of the formula
The numerical values given in the following table are therefore the relative activity, calculated from the ratio of IC50 (SB-203580)/IC50 (test compound). […] The compounds in which R1 represents H represent the prior art according to WO2006/120010.

p38 MAP kinase, sequence (Q16539 whole entry): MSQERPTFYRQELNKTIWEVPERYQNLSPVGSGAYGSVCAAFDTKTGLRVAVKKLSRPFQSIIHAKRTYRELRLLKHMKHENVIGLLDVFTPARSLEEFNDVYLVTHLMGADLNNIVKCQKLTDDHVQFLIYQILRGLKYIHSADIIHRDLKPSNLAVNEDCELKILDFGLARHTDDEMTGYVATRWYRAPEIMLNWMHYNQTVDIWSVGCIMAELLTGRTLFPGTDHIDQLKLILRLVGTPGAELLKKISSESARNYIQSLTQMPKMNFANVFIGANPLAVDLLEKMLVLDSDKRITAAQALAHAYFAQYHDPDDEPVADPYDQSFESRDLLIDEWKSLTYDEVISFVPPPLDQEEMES

Row | p38 MAP kinase (p38 MAP kinase) | melting point [°C] | SMILES | Inhibition of TNF-α (TNF-α)
1 | 2.60 | – | COc1ccc2c(c1)CCc1cc(Nc3ccc(F)cc3F)ccc1C2=O [2-(2,4-Difluorophenylamino)-8-methoxy-10,11-dihydrodibenzo[a,d]cyclo-hepten-5-one] | –
2 | 1.15 | 194.5 | Nc1ccc2c(c1)COc1cc(Nc3ccc(F)cc3N)ccc1C2=O [3-(2-Amino-4-fluorophenylamino)-8-amino-6H-dibenzo[b,e]oxepin-11-one] | 0.24
3 | 1.54 | – | Nc1ccccc1Nc1ccc2c(c1)CCc1ccc(OC[C@@H](O)CO)cc1C2=O [2-(2-Aminoanilino)-7-[2S-,3-dihydroxypropoxy]-10,11-dihydrodibenzo[a,d]-cyclohepten-5-one] | >5
4 | 1.00 | – | COc1ccc2c(c1)C(=O)c1ccc(Nc3ccccc3N)cc1CC2 [2-(2-Aminoanilino)-7-methoxydibenzosuberone] | 0.91
5 | – | 93.9 | Nc1ccc2c(c1)COc1cc(Nc3ccc(C(F)(F)F)cc3N)ccc1C2=O [Example 92, 8-Amino-3-(2-amino-4-trifluoromethylphenylamino)-6H-dibenzo[b,e]oxepin-11-one] | –
6 | 4.85 | – | O=C1c2ccc(Nc3ccc(F)cc3F)cc2CCc2ccc(OCCCO)cc21 [2-(2,4-Difluoroanilino)-7-(3-hydroxy-propoxy)-10,11-dihydrodibenzo[a,d]-cyclohepten-5-one] | >5
7 | 2.60 | – | O=C1c2ccc(Nc3ccc(F)cc3F)cc2CCc2cc(OCCO)ccc21 [2-(2,4-Difluorophenylamino)-8-(2-hydroxyethoxy)-10,11-dihydrodibenzo[a,d]-cyclohepten-5-one] | –
8 | 1.59 | – | COc1ccc2c(c1)C(=O)c1ccc(Nc3ccc(F)cc3F)cc1CC2 [2-(2,4-Difluoroanilino)-7-methoxydibenzosuberone] | 0.70
9 | – | 59 | O=C1c2ccc(-n3cnnn3)cc2COc2cc(Nc3ccc(F)cc3F)ccc21 [Example 95, 3-(2,4-Difluorophenylamino)-8-tetrazol-1-yl-6H-dibenzo[b,e]oxepin-11-one] | –
10 | 0.51 | 244.3 | O=C1c2ccc(NC(=O)N3CCOCC3)cc2COc2cc(Nc3ccc(F)cc3F)ccc21 [Morpholine-4-carboxylic acid [3-(2,4-difluorophenylamino)-1-oxo-6,11-dihydrodibenzo[b,e]oxepin-8-yl]amide] | –
11 | 1.31 | – | CC1(C)OC[C@H](COc2ccc3c(c2)C(=O)c2ccc(Nc4ccccc4N)cc2CC3)O1 [2-(Aminoanilino)-7-(S-1,2-isopropylideneglycer-3-yl)-10,11-dihydrodibenzo[a,d]-cyclohepten-5-one] | >5
12 | 2.26 | – | O=C1c2ccc(Nc3ccc(F)cc3F)cc2CCc2c(O)cccc21 [8-(2,4-Difluorophenylamino)-1-hydroxy-10,11-dihydrodibenzo[a,d]cyclohepten-5-one] | 0.06
13 | 2.53 | – | O=C1c2ccc(Nc3ccc(F)cc3F)cc2CCc2cc(OCCN3CCOCC3)ccc21 [2-(2,4-Difluorophenylamino)-8-(2-morpholin-4-yl-ethoxy)-10,11-dihydrodibenzo[a,d]cyclohepten-5-one] | –
14 | 0.92 | – | COc1ccc2c(c1)C(=O)c1ccc(Nc3ccc(F)cc3N)cc1CC2 [2-(2-Amino-4-fluoroanilino)-7-methoxydibenzosuberone] | 0.73
15 | 1.76 | – | O=C1c2ccc(Nc3ccc(F)cc3F)cc2CCc2c(OC[C@H](O)CO)cccc21 [(R)-8-(2,4-Difluorophenylamino)-1-(2,3-dihydroxypropoxy)-10,11-dihydrodibenzo-[a,d]cyclohepten-5-one] | –
16 | 2.03 | – | O=C1c2ccc(Nc3ccc(F)cc3F)cc2CCc2ccc(O)cc21 [2-(2,4-Difluoroanilino)-7-hydroxy-10,11-dihydrodibenzo[a,d]-cyclohepten-5-one] | 1.80
17 | 1.26 | – | O=C1c2ccc(Nc3ccc(F)cc3F)cc2CCc2c(OCCN3CCOCC3)cccc21 [8-(2,4-Difluorophenylamino)-1-(2-morpholin-4-yl-ethoxy)-10,11-dihydrodibenzo[a,d]cyclo-hepten-5-one] | –
18 | 0.11 | – | COc1ccc2c(c1)C(=O)c1ccc(Nc3ccccc3OC)cc1CC2 [2-(2-Methoxyanilino)-7-methoxydibenzosuberone] | 0.18
19 | 0.74 | – | O=C1c2ccc(Nc3ccc(F)cc3F)cc2CCc2ccc(OC3CCOCC3)cc21 [2-(2,4-Difluoroanilino)-7-(2-tetrahydropyran-4-yl-oxy)-10,11-dihydrodibenzo[a,d]-cyclohepten-5-one] | 1.98
20 | – | 184 to 193 | Nc1ccc2c(c1)COc1cc(Nc3ccc(F)cc3F)ccc1C2=O [Example 82, 3-(2,4-Difluorophenylamino)-8-amino-6H-dibenzo[b,e]oxepin-11-one] | –
21 | 0.93 | 203.9 | Nc1ccc2c(c1)COc1cc(Nc3ccccc3N)ccc1C2=O [3-(2-Aminophenylamino)-8-amino-6H-dibenzo[b,e]oxepin-11-one] | –
22 | 0.14 | 68.4 | COc1ccccc1Nc1ccc2c(c1)OCc1cc(N)ccc1C2=O [8-Amino-3-(2-methoxyphenylamino)-6H-dibenzo[b,e]oxepin-11-one] | 0.04
